On the set-up of series [1]: method as in Japanese Pharmacopoeia monograph. The following applies: ref Japanese Pharmacopoeia monograph, cited from earlier work.
The next series can be described thus: Water solubility. It counts as physicochemical. The following applies: in water. The method, then:
The aqueous solubility of each ester was determined by adding 20 μmol of each compound to 1 mL distilled water in amber test tubes and incubating the tubes at 25 ± 1 °C in a constant-temperature water bath. The test tubes were shaken for 24 h and the suspensions were centrifuged at 1250× g for 10 min. The supernatants were diluted 10-fold with distilled water and assayed by the HPLC method described in Section 3.9.1.
(§1) The Shimadzu HPLC system (Shimadzu, Kyoto, Japan) consisted of a pump (LC-10AD), an autoinjector (SIL-10ADvp), a UV detector (SPD-10Avp), and a column oven (CTO-10Avp). The eluent was monitored spectrophotometrically at 280 nm. Compounds were analyzed on a YMC-Pack C8 reversed-phase column (φ 4.6 × 250 mm, YMC Co., Ltd., Kyoto, Japan) protected by a µBondapak C18 Guard-Pak (Waters Co., Milford, MA, USA) with a degassed mobile phase of methanol and 2-propanol (850/150, v/v) at 0.8 mL/min. UqH-10 and Uq-10 were quantified using linear calibration curves of peak areas versus concentrations. UqH-10 was partly oxidized during the preparation procedure. Therefore, the sum of UqH-10 and Uq-10 represented total UqH-10. Retention times were: UqH-10, 11.6 min; UqH-ester derivatives, 13.2 min and Uq-10, 15.4 min.

Series [2] can be described thus: Enzymatic hydrolysis of UqH-derivatives in rat liver microsomes. It counts as in vitro ADME. The following applies: for Km / Vmax: pH 7.4, 37 °C. The method, then: (§2) The hydrolysis of esters was analyzed at 37 °C in phosphate buffered saline (PBS) containing commercially available rat or human liver microsomes (In Vitro Technologies, Inc., Baltimore, MD, USA). The microsomes (20 mg/mL) were adjusted to a protein concentration of 2 mg/mL and were preincubated at 37 °C for 5 min before adding the esters.
Stock solutions of esters were prepared in ethanol. The enzymatic reactions were initiated by adding 10 µL ester stock solution (final concentration 0.1–0.4 mM) and 50 μL PBS to 940 µL of preheated reaction medium containing rat or human liver microsomes in amber test tubes. These reactions were incubated at 37 °C and, at various times, 100 μL aliquots were removed and mixed with 100 µL 10% trichloroacetic acid. Samples were then vortex mixed for 2 min and 800 µL ethyl acetate was added, with vortex mixing for 5 min. The samples were centrifuged at 1250× g for 10 min. The 20 µL organic layer was analyzed by the HPLC system described in Section 3.9.1. The initial hydrolytic rate (mM UqH-10 formed per min) was calculated from the initial slope of a plot of UqH-10 concentration versus time.
as §1
For orientation: Microsomes from liver hold many membrane-bound enzymes, among them those of drug oxidation.

Series [3] is described as follows: Mixed-micellization with taurocholic acid (appearance of mixtures). It counts as physicochemical. The protocol:
(§3) A solution of 20 mM UqH-DMG was prepared in distilled water and incubated at 36.5 °C until the solution was translucent. The solution was combined with 10 mM TCA aqueous solution in the final molar ratios of 1:0.5–10 UqH-DMG:TCA.

A short description of series [4]: Enzymatic hydrolysis of UqH-derivatives in human liver microsomes. The following applies: pH 7.4, 37 °C, Michaelis–Menten fit. It counts as in vitro ADME. The method, then: as §2
Stock solutions of esters were prepared in ethanol. The enzymatic reactions were initiated by adding 10 µL ester stock solution (final concentration 0.1–0.4 mM) and 50 μL PBS to 940 µL of preheated reaction medium containing rat or human liver microsomes in amber test tubes. […] The 20 µL organic layer was analyzed by the HPLC system described in Section 3.9.1. The initial hydrolytic rate (mM UqH-10 formed per min) was calculated from the initial slope of a plot of UqH-10 concentration versus time.
The Shimadzu HPLC system (Shimadzu, Kyoto, Japan) consisted of a pump (LC-10AD), an autoinjector (SIL-10ADvp), a UV detector (SPD-10Avp), and a column oven (CTO-10Avp). The eluent was monitored spectrophotometrically at 280 nm. Compounds were analyzed on a YMC-Pack C8 reversed-phase column (φ 4.6 × 250 mm, YMC Co., Ltd., Kyoto, Japan) protected by a µBondapak C18 Guard-Pak (Waters Co., Milford, MA, USA) with a degassed mobile phase of methanol and 2-propanol (850/150, v/v) at 0.8 mL/min. […]

The nature of series [5]: Micellization of UqH-DMG in water (visual inspection, solubilizing point vs temperature). Particulars: for Appearance of solution: 45 mM in water. It counts as physicochemical. The protocol:
UqH-DMG was diluted to intended concentrations with milliQ water in glass tubes. The test tubes were incubated in a water bath equipped with a thermometer. The solution appearance was visually inspected and the solubilizing points were plotted on a concentration versus incubation temperature curve.

A short description of series [6]: Particle size by dynamic light scattering (Zetasizer Nano ZS). It is filed as physicochemical. The following applies: mean ± SD. The protocol: as §3
The Z-average of diameters of the particles of aqueous solution of UqH-DMG prepared in a polystyrene cuvette in Section 3.7.1. above were determined by a Zetasizer Nano ZS (MALVERN, Worcestershire, UK). The measurements were performed three independent times for each sample.

Series [7] relates to esterases in rat liver microsomes. Put plainly: Effect of eserine on UqH-4-DMG hydrolysis in rat liver microsomes. It counts as biochemical. Particulars: eserine 0–2.0 mM. The protocol:
(§4) Effects of eserine on UqH-4-DMG hydrolysis in liver microsomes was also examined, using similar methods, with 50 µL eserine aqueous solution added, instead of PBS, to the mixtures with liver microsomes. Eserine was tested at 0–2.0 mM.

Series [8] deals with esterases in human liver microsomes. The series can be described thus: Effect of eserine on UqH-4-DMG hydrolysis in human liver microsomes. The following applies: eserine 0–2.0 mM. It is filed as biochemical. The method, then:
as §4

Where [9] appears, read: calculated using generated UqH-10 levels after sequential hydrolysis.

Values joined by “and” are separate entries in the source; they are usually repeats but may differ in a detail not shown here. Equal values may be shown once. Where a name gives a salt, the structure may show the parent alone. Marks after values point to notes of the source that are not given here.

As usually defined, the melting point is the temperature, or range, at which the solid turns liquid. Compound `COc1c(OC(=O)CN(C)C)c(C)c(C/C=C(\C)CC/C=C(\C)CC/C=C(\C)CC/C=C(\C)CC/C=C(\C)CC/C=C(\C)CC/C=C(\C)CC/C=C(\C)CC/C=C(\C)CCC=C(C)C)c(OC(=O)CN(C)C)c1OC` (as salt: hydrochloride) [UqH-DMG, 2,3-dimethoxy-5-methyl-6-decaprenyl-benzene-1,4-bis-N,N–dimethyl glycinate] gave a melting point of 179 to 181 °C.

For `COC1=C(OC)C(=O)C(C/C=C(\C)CC/C=C(\C)CC/C=C(\C)CC/C=C(\C)CC/C=C(\C)CC/C=C(\C)CC/C=C(\C)CC/C=C(\C)CC/C=C(\C)CCC=C(C)C)=C(C)C1=O` [Uq-10, Ubiquinone-10], the Water solubility in [1] (even when diluted to this concentration) is listed as less than 0.116 mM. Besides, the Water solubility descriptor result in series [1] is given as “practically insoluble, or insoluble”.

Usually Km stands for the concentration of substrate that gives half-maximal velocity. As usually defined, the Vmax is the rate approached at saturating substrate. As for `COc1c(O)c(C)c(C/C=C(\C)CC/C=C(\C)CC/C=C(\C)CC/C=C(\C)CC/C=C(\C)CC/C=C(\C)CC/C=C(\C)CC/C=C(\C)CC/C=C(\C)CCC=C(C)C)c(OC(=O)CN(C)C)c1OC` [UqH-1-DMG], the “Water solubility compared with UqH bis-ester (UqH-DMG)” value in the series “Water solubility” is “lower”. Moreover, in series [2] (Michaelis–Menten fit), the Km amounted to 4.63 mM and the Vmax was 8.21e-07 M/min.

`COc1c(O)c(C/C=C(\C)CC/C=C(\C)CC/C=C(\C)CC/C=C(\C)CC/C=C(\C)CC/C=C(\C)CC/C=C(\C)CC/C=C(\C)CC/C=C(\C)CCC=C(C)C)c(C)c(OC(=O)CN(C)C)c1OC` [UqH-4-DMG]: in “Water solubility”, the “Water solubility compared with UqH bis-ester (UqH-DMG)” value is “lower”. In [3] (10-times molar-equivalents taurocholic acid), the “Solubilization with taurocholic acid” value is reported as “solubilized”. Further, in series [2], the “Vmax/Km relative to UqH-1-DMG” value is recorded as 8.9 fold. For the same compound, in series [2] (Michaelis–Menten fit), the Km was 0.0751 mM and the Vmax was found to be 1.19e-07 M/min. In series [4], the Km was determined as 72.2 µM and the Vmax turned out to be 1.23e-07 M/min.

For `COc1c(OC(=O)CN(C)C)c(C)c(C/C=C(\C)CC/C=C(\C)CC/C=C(\C)CC/C=C(\C)CC/C=C(\C)CC/C=C(\C)CC/C=C(\C)CC/C=C(\C)CC/C=C(\C)CCC=C(C)C)c(OC(=O)CN(C)C)c1OC` [UqH-DMG, 2,3-dimethoxy-5-methyl-6-decaprenyl-benzene-1,4-bis-N,N–dimethyl glycinate], the solubility at 24 h in “Water solubility” (distilled water, read-out: Water solubility (transparent solution in water at concentrations up to)) is not above 5 mM. Also, the Appearance of solution entry in series [5] (27.0 °C) was “opaque”; in series [5] (36.5 °C), “transparent”. For the same compound, the “Krafft's point” value in series [5] (in water) was “around 36.5 °C”. Moreover, the “Appearance of mixture with taurocholic acid” value in series [3] (UqH-DMG:TCA molar ratio 1:0.5) is on record as “slightly cloudy”; in series [3] (UqH-DMG:TCA molar ratios 1:1 to 1:10), “transparent”. For the same compound, the Z-average particle diameter in series [6] (20 mM in water, without TCA, prepared at 36.5 °C) was 20.38 ± 0.14 nm and 20 nm; in [6] (UqH-DMG:TCA mixture at 1:1 molar ratio), 5.183 ± 0.033 nm and 5 nm. For the same compound, in series [2] (setting [9]), the Km is 3.89 mM. In series [2] (setting [9]), the Vmax is 0.603 ^a ×10^−6 M·min^−1.

With `CNC(=O)Oc1ccc2c(c1)[C@]1(C)CCN(C)[C@@H]1N2C` [eserine, physostigmine sulfate], the “Effect on UqH-4-DMG hydrolysis” value in [7] and in series [8] was “inhibited” in each case.

The values above are taken from PMC7037610, “Novel Cationic Prodrug of Ubiquinol-10 Enhances Intestinal Absorption via Efficient Formation of Nanosized Mixed-Micelles with Bile Acid Anions” (Molecules, 2020).
